# Measured values reported in ChEMBL document CHEMBL3046407, “Toxicity of monoterpenes against larvae and adults of Colorado potato beetle, Leptinotarsa decemlineata Say (Coleoptera: Chrysomelidae)” (2007).
# Legend:
# [1] = tested on: Leptinotarsa decemlineata; type: functional, Instar larval stage
# [2] = tested on: Leptinotarsa decemlineata; test: Insecticidal activity against third-instar larval stage of Leptinotarsa decemlineata infested potato leaves assessed as mortality at 20 mg after 12 hr relative to control; type: functional
# [3] = tested on: Leptinotarsa decemlineata; type: functional, Instar larval stage; remark: listed apart in the source
# [4] = tested on: Leptinotarsa decemlineata; test: Insecticidal activity against first-instar larval stage of Leptinotarsa decemlineata infested potato leaves assessed as mortality at 20 mg after 24 hr relative to control; type: functional
# [5] = tested on: Leptinotarsa decemlineata; test: Insecticidal activity against first-instar larval stage of Leptinotarsa decemlineata infested potato leaves assessed as mortality at 10 mg after 96 hr relative to control; type: functional
# [6] = tested on: Leptinotarsa decemlineata; type: functional, Instar larval stage; remark: listed apart in the source
# [7] = tested on: Leptinotarsa decemlineata; test: Insecticidal activity against third-instar larval stage of Leptinotarsa decemlineata infested potato leaves assessed as mortality at 10 mg after 24 hr relative to control; type: functional
# [8] = tested on: Leptinotarsa decemlineata; test: Insecticidal activity against second-instar larval stage of Leptinotarsa decemlineata infested potato leaves assessed as mortality at 10 mg after 12 hr relative to control; type: functional
# [9] = tested on: Leptinotarsa decemlineata; type: functional, Instar larval stage; remark: listed apart in the source
# [10] = tested on: Leptinotarsa decemlineata; test: Insecticidal activity against first-instar larval stage of Leptinotarsa decemlineata infested potato leaves assessed as mortality at 20 mg after 12 hr relative to control; type: functional
# [11] = tested on: Leptinotarsa decemlineata; test: Insecticidal activity against adult Leptinotarsa decemlineata infested potato leaves assessed as mortality at 10 mg after 96 hr relative to control; type: functional
# [12] = tested on: Leptinotarsa decemlineata; test: Insecticidal activity against third-instar larval stage of Leptinotarsa decemlineata infested potato leaves assessed as mortality at 20 mg after 24 hr relative to control; type: functional
# [13] = tested on: Leptinotarsa decemlineata; test: Insecticidal activity against first-instar larval stage of Leptinotarsa decemlineata infested potato leaves assessed as mortality at 20 mg after 48 hr relative to control; type: functional
# [14] = tested on: Leptinotarsa decemlineata; test: Insecticidal activity against first-instar larval stage of Leptinotarsa decemlineata infested potato leaves assessed as mortality at 10 mg after 24 hr relative to control; type: functional
# [15] = tested on: Leptinotarsa decemlineata; test: Insecticidal activity against first-instar larval stage of Leptinotarsa decemlineata infested potato leaves assessed as mortality at 10 mg after 48 hr relative to control; type: functional
# [16] = tested on: Leptinotarsa decemlineata; test: Insecticidal activity against adult Leptinotarsa decemlineata infested potato leaves assessed as mortality at 10 mg after 12 hr relative to control; type: functional
# [17] = tested on: Leptinotarsa decemlineata; type: functional, Instar larval stage; remark: listed apart in the source
# [18] = tested on: Leptinotarsa decemlineata; type: functional, Instar larval stage; remark: listed apart in the source
# [19] = tested on: Leptinotarsa decemlineata; test: Insecticidal activity against adult Leptinotarsa decemlineata infested potato leaves assessed as mortality at 10 mg after 48 hr relative to control; type: functional
# [20] = tested on: Leptinotarsa decemlineata; type: functional, Instar larval stage; remark: listed apart in the source
# [21] = tested on: Leptinotarsa decemlineata; test: Insecticidal activity against third-instar larval stage of Leptinotarsa decemlineata infested potato leaves assessed as mortality at 10 mg after 12 hr relative to control; type: functional
# [22] = tested on: Leptinotarsa decemlineata; test: Insecticidal activity against adult Leptinotarsa decemlineata infested potato leaves assessed as mortality at 20 mg after 24 hr relative to control; type: functional
# [23] = tested on: Leptinotarsa decemlineata; test: Insecticidal activity against adult Leptinotarsa decemlineata infested potato leaves assessed as mortality at 20 mg after 48 hr relative to control; type: functional
# [24] = tested on: Leptinotarsa decemlineata; type: functional, Instar larval stage; remark: listed apart in the source
# [25] = tested on: Leptinotarsa decemlineata; type: functional, Instar larval stage; remark: listed apart in the source
# [26] = tested on: Leptinotarsa decemlineata; test: Insecticidal activity against second-instar larval stage of Leptinotarsa decemlineata infested potato leaves assessed as mortality at 20 mg after 12 hr relative to control; type: functional
# [27] = tested on: Leptinotarsa decemlineata; test: Insecticidal activity against adult Leptinotarsa decemlineata infested potato leaves assessed as mortality at 20 mg after 96 hr relative to control; type: functional
# [28] = tested on: Leptinotarsa decemlineata; test: Insecticidal activity against adult Leptinotarsa decemlineata infested potato leaves assessed as mortality at 20 mg after 12 hr relative to control; type: functional
# [29] = tested on: Leptinotarsa decemlineata; test: Insecticidal activity against first-instar larval stage of Leptinotarsa decemlineata infested potato leaves assessed as mortality at 20 mg after 96 hr relative to control; type: functional
# [30] = tested on: Leptinotarsa decemlineata; test: Insecticidal activity against first-instar larval stage of Leptinotarsa decemlineata infested potato leaves assessed as mortality at 10 mg after 12 hr relative to control; type: functional
# [31] = tested on: Leptinotarsa decemlineata; test: Insecticidal activity against adult Leptinotarsa decemlineata infested potato leaves assessed as mortality at 10 mg after 24 hr relative to control; type: functional
# [32] = tested on: Leptinotarsa decemlineata; type: functional, Instar larval stage; remark: listed apart in the source
# Sitophilus granarius = test: Insecticidal activity against Sitophilus granarius (granary weevil) assessed as mortality; type: functional
SMILES,mortality [1] [%],mortality [2] [%],mortality [3] [%],mortality [4] [%],mortality [5] [%],mortality [6] [%],mortality [7] [%],mortality [8] [%],mortality [9] [%],mortality [10] [%],mortality [11] [%],mortality [12] [%],mortality [13] [%],mortality [14] [%],mortality [15] [%],mortality [16] [%],mortality [17] [%],mortality [18] [%],mortality [19] [%],mortality [20] [%],further results
CC1=CC[C@@H](C(C)(C)O)CC1 [ALPHA-TERPINEOL],6.7,13.3,3.3,23.3,16.7,20,0,0,0,16.7,16.7,13.3,26.7,6.7,13.7,0,6.7,0,6.7,23.3,mortality [21]: 0%; mortality [22]: 0%; mortality [23]: 0%; mortality [24]: 13.3%; mortality [25]: 6.7%; mortality [26]: 0%; mortality [27]: 23.3%; mortality [28]: 0%; mortality [29]: 30%; mortality [30]: 3.3%; mortality [31]: 0%; mortality [32]: 10%
CC1(C)C2CCC1(C)C(O)C2 (stereo not given) [BORNEOL],16.7,0,0,0,13.3,0,0,0,0,0,23.3,0,6.7,0,0,0,0,0,13.3,0,mortality [21]: 0%; mortality [22]: 20%; mortality [23]: 66.7%; mortality [24]: 20%; mortality [25]: 0%; mortality [26]: 0%; mortality [27]: 66.7%; mortality [28]: 3.3%; mortality [29]: 16.7%; mortality [30]: 0%; mortality [31]: 0%; mortality [32]: 23.3%
CC12CCC(CC1=O)C2(C)C (stereo not given) [CAMPHOR],86.7,26.7,83.3,53.3,76.7,33.3,0,13.3,6.7,30,56.7,30,86.7,0,23.3,0,63.3,6.7,36.7,36.7,mortality [21]: 0%; mortality [22]: 13.3%; mortality [23]: 43.3%; mortality [24]: 70%; mortality [25]: 46.7%; mortality [26]: 36.7%; mortality [27]: 93.3%; mortality [28]: 6.7%; mortality [29]: 86.7%; mortality [30]: 0%; mortality [31]: 0%; mortality [32]: 86.7%
CC12CCC(C1)C(C)(C)C2=O (stereo not given) [FENCHONE],100,66.7,100,83.3,83.3,100,93.3,23.3,100,36.7,100,100,100,46.7,63.3,53.3,63.3,100,100,100,mortality [21]: 56.7%; mortality [22]: 100%; mortality [23]: 100%; mortality [24]: 73.3%; mortality [25]: 50%; mortality [26]: 33.3%; mortality [27]: 100%; mortality [28]: 90%; mortality [29]: 100%; mortality [30]: 13.3%; mortality [31]: 100%; mortality [32]: 100%
CC12CCC(C1)C(C)(C)C2O (stereo not given) [FENCHYL ALCOHOL],3.3,6.7,3.3,3.3,13.3,20,23.3,3.3,30,3.3,43.3,10,3.3,10,13.3,3.3,13.3,30,16.7,23.3,mortality [21]: 10%; mortality [22]: 0%; mortality [23]: 6.7%; mortality [24]: 13.3%; mortality [25]: 10%; mortality [26]: 3.3%; mortality [27]: 20%; mortality [28]: 0%; mortality [29]: 3.3%; mortality [30]: 3.3%; mortality [31]: 16.7%; mortality [32]: 3.3%
CC(C)[C@H]1CC[C@@H](C)C[C@@H]1O [ISOMENTHOL],0,0,0,0,10,3.3,0,0,0,0,33.3,0,0,3.3,6.7,0,0,0,30,6.7,mortality [21]: 0%; mortality [22]: 6.7%; mortality [23]: 20%; mortality [24]: 0%; mortality [25]: 0%; mortality [26]: 0%; mortality [27]: 26.7%; mortality [28]: 6.7%; mortality [29]: 0%; mortality [30]: 3.3%; mortality [31]: 20%; mortality [32]: 0%
CC1CCC(C(C)C)C(O)C1 (stereo not given) [MENTHOL],33.3,26.7,20,16.7,36.7,40,23.3,3.3,26.7,0,30,33.3,30,3.3,16.7,3.3,26.7,23.3,16.7,40,mortality [21]: 20%; mortality [22]: 0%; mortality [23]: 13.3%; mortality [24]: 46.7%; mortality [25]: 6.7%; mortality [26]: 0%; mortality [27]: 33%; mortality [28]: 0%; mortality [29]: 36.7%; mortality [30]: 0%; mortality [31]: 3.3%; mortality [32]: 40%
CC(C)=C1CC[C@@H](C)CC1=O [PULEGONE],–,–,–,–,–,–,–,–,–,–,–,–,–,–,–,–,–,–,–,–,mortality (Sitophilus granarius): 90%
